From patent publication US9365576B2, “Pyrrolopyrrolidinone compounds” (Novartis AG, priority 2012, dated 2016)

The molecules below were run against human MDM2 protein (amino acids 2-188) (Homo sapiens (Human), UniProt Q00987) (assay: TR-FRET assay, p53-MDM2 Assay 2 (modified)). Details: TR-FRET; 0.1 nM MDM2, 0.1 nM Europium labeled streptavidin, Tecan genios Pro reader; read-out: IC50 p53-MDM2 Assay 2.
Chain of human MDM2 protein (amino acids 2-188) (Q00987 2-188): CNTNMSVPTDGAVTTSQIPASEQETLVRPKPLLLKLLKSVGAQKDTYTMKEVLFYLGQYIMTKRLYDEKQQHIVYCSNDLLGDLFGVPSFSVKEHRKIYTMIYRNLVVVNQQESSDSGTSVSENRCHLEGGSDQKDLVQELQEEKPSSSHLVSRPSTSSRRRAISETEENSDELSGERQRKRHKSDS
Assay type: binding
How it was run: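 IC50 values were curve-fitted from the time-resolved 665/620 nm emission ratio after 340 nm excitation. The assay combined 0.625 nM europium-streptavidin donor with 1.25 nM C-terminally biotinylated MDM2 2–188 (15 min, RT), followed by 15 min with 10 nM Cy5-labeled p53 18–26 acceptor peptide.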
Work on COc1ccc(C(=O)O)cc1-c1cc2c(n1C(C)C)C(c1ccc(Cl)cc1)N(c1cc(Cl)c(=O)n(C)c1)C2=O (stereo not drawn) [Example 50, 3-[5-(5-Chloro-1-methyl-6-oxo-1,6-dihydro-pyridin-3-yl)-6-(4-chloro-phenyl)-1-isopropyl-4-oxo-1,4,5,6-tetrahydro-pyrrolo[3,4S-b]pyrrol-2-yl]-4-methoxy-benzoic acid] yielded an IC50 of 0.234 nM. COc1ccc(S(C)(=O)=O)cc1-c1cc2c(n1C(C)C)C(c1ccc(Cl)cc1)N(c1cc(Cl)ccc1C)C2=O (stereo not drawn) [Example 114, 5-(5-Chloro-2-methyl-phenyl)-6-(4-chloro-phenyl)-1-isopropyl-2-(5-methanesulfonyl-2-methoxy-phenyl)-5,6-dihydro-1H-pyrrolo[3,4-b]pyrrol-4-one] was tested, and the IC50 was 0.184 nM. Work on COc1ncc(-c2cc3c(n2C(C)C)[C@@H](c2ccc(C#N)cc2)N(c2cc(Cl)cn(C)c2=O)C3=O)c(OC)n1 [Example 216, 4-[(R)-5-(5-Chloro-1-methyl-2-oxo-1,2-dihydro-pyridin-3-yl)-2-(2,4-dimethoxy-pyrimidin-5-yl)-1-isopropyl-4-oxo-1,4,5,6-tetrahydro-pyrrolo[3,4-b]pyrrol-6-yl]-benzonitrile] yielded an IC50 of 883 nM. Work on COc1ccc(S(C)(=O)=O)cc1-c1cc2c(n1C(C)C)C(c1ccc(Cl)cc1)N(c1cc(Cl)c(=O)n(C)c1)C2=O (stereo not drawn) [Example 119, 5-(5-Chloro-1-methyl-6-oxo-1,6-dihydro-pyridin-3-yl)-6-(4-chloro-phenyl)-1-isopropyl-2-(5-methanesulfonyl-2-methoxy-phenyl)-5,6-dihydro-1H-pyrrolo[3,4-b]pyrrol-4-one] yielded an IC50 of 0.168 nM. With CNC(=O)c1ccc(OC)c(-c2cc3c(n2C(C)C)C(c2ccc(Cl)cc2)N([C@H]2CC[C@H](O)CC2)C3=O)c1 (stereo partly drawn) [Example 64, 3-[6-(4-Chloro-phenyl)-5-(trans-4-hydroxy-cyclohexyl)-1-isopropyl-4-oxo-1,4,5,6-tetrahydro-pyrrolo[3,4-b]pyrrol-2-yl]-4-methoxy-N-methyl-benzamide] the IC50 was 1 nM. In the case of COc1cnc(CC#N)cc1-c1cc2c(n1C(C)C)C(c1ccc(C#N)cc1)N(c1cccc(Cl)c1F)C2=O (stereo not drawn) [Example 87, 4-[5-(3-Chloro-2-fluoro-phenyl)-2-(2-cyanomethyl-5-methoxy-pyridin-4-yl)-1-isopropyl-4-oxo-1,4,5,6-tetrahydro-pyrrolo[3,4-b]pyrrol-6-yl]-benzonitrile], the IC50 is reported as 0.359 nM. COc1ncc(-c2cc3c(n2C(C)C)C(c2ccc(Cl)cn2)N(c2ccc(F)c(Cl)c2)C3=O)c(OC)n1 (stereo not drawn) [Example 214, 5-(3-Chloro-4-fluoro-phenyl)-6-(5-chloro-pyridin-2-yl)-2-(2,4-dimethoxy-pyrimidin-5-yl)-1-isopropyl-5,6-dihydro-1H-pyrrolo[3,4-b]pyrrol-4-one] showed an IC50 of 1.89 nM. Molecule COc1nc(N)ncc1-c1cc2c(n1C(C)C)C(c1ccc(Cl)cc1)N(c1cc(Cl)c(=O)n(C)c1)C2=O (stereo not drawn) [Example 51, 2-(2-Amino-4-methoxy-pyrimidin-5-yl)-5-(5-chloro-1-methyl-6-oxo-1,6-dihydro-pyridin-3-yl)-6-(4-chloro-phenyl)-1-isopropyl-5,6-dihydro-1H-pyrrolo[3,4-b]pyrrol-4-one] has an IC50 of 0.461 nM. With COc1ccc(C#N)cc1-c1cc2c(n1C(C)C)C(c1ccc(Cl)cc1)N([C@H]1CC[C@H](O)CC1)C2=O (stereo partly drawn) [Example 67, 3-[6-(4-Chloro-phenyl)-5-(trans-4-hydroxy-cyclohexyl)-1-isopropyl-4-oxo-1,4,5,6-tetrahydro-pyrrolo[3,4-b]pyrrol-2-yl]-4-methoxy-benzonitrile] the IC50 was 2.49 nM. In the case of COC[C@@H](C)n1c(-c2cnc(N)nc2OC)cc2c1C(c1ccc(C#N)cc1)N(c1ccc(F)c(Cl)c1)C2=O (stereo partly drawn) [Example 223], the IC50 is reported as 0.631 nM. COc1nc(N(C)C)ncc1-c1cc2c(n1C(C)C)[C@@H](c1ccc(C#N)cc1)N(c1cc(Cl)c[nH]c1=O)C2=O [Example 168, 4-[(R)-5-(5-Chloro-2-oxo-1,2-dihydro-pyridin-3-yl)-2-(2-dimethylamino-4-methoxy-pyrimidin-5-yl)-1-isopropyl-4-oxo-1,4,5,6-tetrahydro-pyrrolo[3,4-b]pyrrol-6-yl]-benzonitrile] gave an IC50 of 107 nM. Molecule COc1nc(N)ncc1-c1cc2c(n1C(C)C)C(c1ccc(Cl)cc1)N(c1cc(Cl)cnc1OC)C2=O (stereo not drawn) [Example 206, 2-(2-Amino-4-methoxy-pyrimidin-5-yl)-5-(5-chloro-2-methoxy-pyridin-3-yl)-6-(4-chloro-phenyl)-1-isopropyl-5,6-dihydro-1H-pyrrolo[3,4-b]pyrrol-4-one] has an IC50 of 0.509 nM. In the case of COc1ccc(C#N)cc1-c1cc2c(n1C(C)C)C(c1ccc(Cl)cc1)N(C1CCOCC1)C2=O (stereo not drawn) [Example 77, 3-[6-(4-Chloro-phenyl)-1-isopropyl-4-oxo-5-(tetrahydro-pyran-4-yl)-1,4,5,6-tetrahydro-pyrrolo[3,4-b]pyrrol-2-yl]-4-methoxy-benzonitrile], the IC50 is reported as 1.51 nM. Molecule COC[C@@H](C)n1c(-c2cnc(OC)nc2OC)cc2c1C(c1ccc(Cl)cc1)N(c1cc(Cl)c(=O)n(C)c1)C2=O (stereo partly drawn) [Example 225] has an IC50 of 0.277 nM. With COc1ncc(-c2cc3c(n2C(C)C)C(c2ccc(Cl)cc2)N(c2cc(Cl)cn(C)c2=O)C3=O)c(OC)n1 (stereo not drawn) [Example 70, 5-(5-Chloro-1-methyl-2-oxo-1,2-dihydro-pyridin-3-yl)-6-(4-chloro-phenyl)-2-(2,4-dimethoxy-pyrimidin-5-yl)-1-isopropyl-5,6-dihydro-1H-pyrrolo[3,4-b]pyrrol-4-one] the IC50 was 0.235 nM. Molecule COc1ncc(-c2cc3c(n2C(C)C)C(c2ccc(Cl)cc2)N(C2CCNCC2)C3=O)c(OC)n1 (stereo not drawn) [Example 106, 6-(4-Chloro-phenyl)-2-(2,4-dimethoxy-pyrimidin-5-yl)-1-isopropyl-5-piperidin-4-yl-5,6-dihydro-1H-pyrrolo[3,4-b]pyrrol-4-one] has an IC50 of 904 nM. With COc1nc(N(C)C)ncc1-c1cc2c(n1C(C)C)C(c1ccc(C#N)cc1)N(C1CCOCC1)C2=O (stereo not drawn) [Example 158, 4-[2-(2-Dimethylamino-4-methoxy-pyrimidin-5-yl)-1-isopropyl-4-oxo-5-(tetrahydro-pyran-4-yl)-1,4,5,6-tetrahydro-pyrrolo[3,4-b]pyrrol-6-yl]-benzonitrile] the IC50 was 1.34 nM. Work on COc1ccc(CC(=O)N(C)C)cc1-c1cc2c(n1C(C)C)C(c1ccc(Cl)cc1)N(c1cc(Cl)ccc1C)C2=O (stereo not drawn) [Example 82, 2-{3-[5-(5-Chloro-2-methyl-phenyl)-6-(4-chloro-phenyl)-1-isopropyl-4-oxo-1,4,5,6-tetrahydro-pyrrolo[3,4-b]pyrrol-2-yl]-4-methoxy-phenyl}-N,N-dimethyl-acetamide] yielded an IC50 of 0.152 nM. Molecule COc1ncc(-c2cc3c(n2C(C)C)C(c2ccc(Cl)cc2)N(C2CCOCC2)C3=O)c(OC)n1 (stereo not drawn) [Example 76, 6-(4-Chloro-phenyl)-2-(2,4-dimethoxy-pyrimidin-5-yl)-1-isopropyl-5-(tetrahydro-pyran-4-yl)-5,6-dihydro-1H-pyrrolo[3,4-b]pyrrol-4-one] has an IC50 of 1.64 nM. COc1ncc(-c2cc3c(n2C(C)C)C(c2ccc(C#N)cc2)N(c2c[nH]c(=O)c(Cl)c2)C3=O)c(OC)n1 (stereo not drawn) [Example 135, 4-[5-(5-Chloro-6-oxo-1,6-dihydro-pyridin-3-yl)-2-(2,4-dimethoxy-pyrimidin-5-yl)-1-isopropyl-4-oxo-1,4,5,6-tetrahydro-pyrrolo[3,4-b]pyrrol-6-yl]-benzonitrile] was tested, and the IC50 was 0.427 nM. COc1nc(N(C)C)ncc1-c1cc2c(n1C(C)C)C(c1ccc(Cl)cc1)N(c1cn(C)c(=O)cc1C)C2=O (stereo not drawn) [Example 112, 6-(4-Chloro-phenyl)-2-(2-dimethylamino-4-methoxy-pyrimidin-5-yl)-5-(1,4-dimethyl-6-oxo-1,6-dihydro-pyridin-3-yl)-1-isopropyl-5,6-dihydro-1H-pyrrolo[3,4-b]pyrrol-4-one] gave an IC50 of 0.393 nM. Work on COc1ncc(-c2cc3c(n2C(C)C)C(c2ccc(Cl)c(F)c2)N(c2cc(Cl)cn(C)c2=O)C3=O)c(OC)n1 (stereo not drawn) [Example 196, 6-(4-Chloro-3-fluoro-phenyl)-5-(5-chloro-1-methyl-2-oxo-1,2-dihydro-pyridin-3-yl)-2-(2,4-dimethoxy-pyrimidin-5-yl)-1-isopropyl-5,6-dihydro-1H-pyrrolo[3,4-b]pyrrol-4-one] yielded an IC50 of 0.395 nM. COc1ncc(-c2cc3c(n2C(C)C)[C@](C)(c2ccc(Cl)cc2)N(c2cc(Cl)c(=O)n(C)c2)C3=O)c(OC)n1 [Example 162, (S)-5-(5-Chloro-1-methyl-6-oxo-1,6-dihydro-pyridin-3-yl)-6-(4-chloro-phenyl)-2-(2,4-dimethoxy-pyrimidin-5-yl)-1-isopropyl-6-methyl-5,6-dihydro-1H-pyrrolo[3,4-b]pyrrol-4-one] showed an IC50 of 49 nM. Molecule COc1ccc(C(=O)O)cc1-c1cc2c(n1C(C)C)C(c1ccc(Cl)cc1)N(c1cc(Cl)ccc1C)C2=O (stereo not drawn) [Example 35, 3-[5-(5-Chloro-2-methyl-phenyl)-6-(4-chloro-phenyl)-1-isopropyl-4-oxo-1,4,5,6-tetrahydro-pyrrolo[3,4-b]pyrrol-2-yl]-4-methoxy-benzoic acid] has an IC50 of 0.169 nM. Work on COc1ccc(C(=O)N2CCOCC2)cc1-c1cc2c(n1C(C)C)C(c1ccc(Cl)cc1)N(c1ccc(F)c(Cl)c1)C2=O (stereo not drawn) [Example 55, 5-(3-Chloro-4-fluoro-phenyl)-6-(4-chloro-phenyl)-1-isopropyl-2-[2-methoxy-5-(morpholine-4-carbonyl)-phenyl]-5,6-dihydro-1H-pyrrolo[3,4-b]pyrrol-4-one] yielded an IC50 of 0.287 nM. Molecule COc1nc(N(C)C)ncc1-c1cc2c(n1C(C)C)C(c1ccc(C#N)cc1)N(c1ccc(F)c(Cl)c1)C2=O (stereo not drawn) [Example 93, 4-[5-(3-Chloro-4-fluoro-phenyl)-2-(2-dimethylamino-4-methoxy-pyrimidin-5-yl)-1-isopropyl-4-oxo-1,4,5,6-tetrahydro-pyrrolo[3,4-b]pyrrol-6-yl]-benzonitrile] has an IC50 of 0.361 nM. COc1nc(N)ncc1-c1cc2c(n1C(C)C)C(c1ccc(Cl)cc1)N(c1cc(C)nn1C)C2=O (stereo not drawn) [Example 175, 2-(2-Amino-4-methoxy-pyrimidin-5-yl)-6-(4-chloro-phenyl)-5-(2,5-dimethyl-2H-pyrazol-3-yl)-1-isopropyl-5,6-dihydro-1H-pyrrolo[3,4-b]pyrrol-4-one] gave an IC50 of 3.72 nM.
